Experimental data from the supplement of paper PMC5579334.

Legend:
HS-Sch-2 = test: relative IC50 (inflection point of fitted dose-response curve, CellTiter-Glo viability, 72 h; top asymptote may be below 50% inhibition); higher = less potent
Method in brief: (§1)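 Viability of MPNST cell lines and primary human Schwann cells was read as CellTiter-Glo ATP luminescence after 72 h at 37 °C, 5% CO2, in 384-well plates seeded with 750–1000 cells per well. Each compound had been preprinted at five concentrations in 10-fold steps. Signals were scaled between vehicle and positive-control wells, duplicates averaged where present, and fitted with four-parameter logistic curves. Drug sensitivity score and relative IC50 (censored at the top concentration) come from those fits, and percent inhibition is taken at the top concentration.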

HS-PSS [1] = test: as above
Method in brief: as §1

YST-1 = test: as above
Method in brief: as §1

HS-PSS [2] = test: relative IC50 (inflection point of fitted dose-response curve, CellTox-Green cytotoxicity, 72 h; top asymptote may be below 50%); higher = less potent
Method in brief: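 MPNST cell lines and primary human Schwann cells were grown for 72 h at 37 °C in 384-well plates containing five 10-fold compound dilutions. CellTox-Green, added before seeding at a final 1:1000 dilution, gave fluorescence from DNA released by disrupted cells, and signals were scaled to vehicle and positive-control wells. Curves were fitted with a four-parameter logistic model. Drug sensitivity score and relative IC50 come from these fits, with IC50 censored at the top concentration.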

| Structure (SMILES) | relative IC50 (HS-Sch-2) [µM] | relative IC50 (HS-PSS [1]) [µM] | relative IC50 (YST-1) [µM] | relative IC50 (HS-PSS [2]) [µM] |
| --- | --- | --- | --- | --- |
| Cc1nn(C)c(COc2ccc(N3CCN(S(=O)(=O)N(C)C)CC3)cc2)c1-c1cccc2c(CCCOc3cccc4ccccc34)c(C(=O)O)n(CCN3CCOCC3)c12 | 15.4 | 17.8 | 12.7 | 14.9 |
| CN1CCC(CNc2ccc3ncc(-c4cccc(OC(F)(F)F)c4)n3n2)CC1 [SGI-1776] | 2.37 | 2.47 | 1.66 | 2.51 |
| N.N.[Cl][Pt][Cl] [Cisplatin] | 1.17 | 4.7 | 5.18 | 2.27 |
| C1=N/C2=N/c3ccc(OCCN4CCCC4)c(c3)COC/C=C/COCc3cccc(c3)C(=C1)N2 [Pacritinib] | 1.76 | 1.18 | 1.94 | 2.78 |
| O=C(O)c1ccc2c(c1)nc(Nc1cccc(Cl)c1)c1ccncc12 [Silmitasertib] | 3.54 | 2.58 | 2.36 | > 10 |
| NC(=S)N/N=C/c1ncccc1N [Triapine] | 1.69 | 2.25 | 3.88 | 3.26 |
| Cc1cc(C(=O)NOCCO)c(Nc2ccc(I)cc2F)n(C)c1=O [AZD-8330] | 0.174 | 0.322 | > 10 | > 10 |
| Cc1cnc(Nc2ccc(OCCN3CCCC3)cc2)nc1Nc1cccc(S(=O)(=O)NC(C)(C)C)c1 [Fedratinib] | 1.18 | 1.44 | 1.52 | 3.37 |
| C=CC(=O)Nc1cccc(Nc2nc(Nc3ccc(N4CCN(C(C)=O)CC4)cc3OC)ncc2C(F)(F)F)c1 [Rociletinib] | 2.82 | 3.1 | 1.61 | 2.98 |
| CC(C)[C@H]1C(=O)N[C@@H](CCCNC(=N)N)C(=O)NCC(=O)N[C@@H](CC(=O)O)C(=O)N[C@H](Cc2ccccc2)C(=O)N1C [Cilengitide] | 3.25 | > 10 | > 10 | > 10 |
| CN(C)c1cc2c(cc1Sc1nc3c(N)nccc3n1CCNCC(C)(C)C)OCO2 [CUDC-305] | 0.219 | 0.51 | 0.516 | 0.384 |
| O=C(NOCCO)c1ccc2cncn2c1Nc1ccc(I)cc1F [GDC-0623] | 0.368 | 0.3 | > 2.5 | > 2.5 |
| CN(C)Cc1c(C(=O)NCCOc2ccc(C(=O)NO)cc2)oc2ccccc12 [Abexinostat] | 0.197 | 0.333 | 0.0723 | 1.43 |
| CCc1c2c(nc3ccc(O)cc13)-c1cc3c(c(=O)n1C2)COC(=O)[C@]3(O)CC [SN-38] | 0.00922 | 0.036 | 0.00463 | 0.0297 |
| CC[C@@]1(O)C(=O)OCc2c1cc1n(c2=O)Cc2cc3ccccc3nc2-1 [Camptothecin] | 0.0634 | 0.199 | 0.0401 | 0.358 |
| COc1cc(C(=O)O)ccc1NC(=O)[C@@H]1N[C@@H](CC(C)(C)C)[C@](C#N)(c2ccc(Cl)cc2F)[C@H]1c1cccc(Cl)c1F [Idasanutlin] | > 10 | 0.178 | 0.062 | > 10 |
| COc1ccc(CCc2nc3cc(-c4c(C)noc4C)ccc3n2C[C@H](C)N2CCOCC2)cc1Cl [SGC-CBP30] | 3.85 | 9.71 | 3.97 | > 25 |
| C[C@@H]1COC(Nc2ccc3ncnc(Nc4ccc(OCc5nccs5)c(Cl)c4)c3c2)=N1 [Varlitinib] | 1.64 | 0.821 | 0.247 | > 10 |
| Cc1cc(OCc2nnc(SC3CCCC3)n2-c2cccnc2)ccc1-c1ccc(S(C)(=O)=O)cc1 [NMS-873] | 0.193 | 0.101 | 1.49 | 2.95 |
| NCCNc1ccc(NCCN)c2c1C(=O)c1ccncc1C2=O [Pixantrone] | 3.48 | 3 | 3.3 | > 10 |
| Cc1nc(N)sc1-c1ccnc(Nc2ccc(N3CCOCC3)cc2)n1 [CYC-116] | 1.58 | 1.39 | 0.51 | > 10 |
| CS(=O)(=O)N1CCc2c(-c3cnc(N)nc3)nc(N3CCOCC3)nc21 | 1.05 | 0.687 | 0.256 | > 10 |
| CCn1c(=O)c(-c2cc[nH]n2)cc2c(C)nc(N)nc21 [Voxtalisib] | 2.18 | 2.33 | 1.12 | > 10 |
| CCCCCCCCCCCCCCCCCCOP(=O)([O-])OC1CC[N+](C)(C)CC1 [Perifosine] | > 2.5 | > 2.5 | > 2.5 | > 2.5 |
| Cc1cc(-c2ncc(CC(=O)Nc3ccc(-c4cnccn4)cn3)cc2C)ccn1 [NVP-LGK974] | 2.92 | 1.97 | > 10 | > 10 |
| O=C(O)c1ccc(CN2CCC(CN[C@@H]3C[C@H]3c3ccccc3)CC2)cc1 | > 10 | > 10 | > 10 | > 10 |
| N[C@@H](Cc1ccc(N(CCCl)CCCl)cc1)C(=O)O [Melphalan] | > 12.5 | > 12.5 | > 12.5 | > 12.5 |
